Assay results published in the kinase profiling compilation of Christmann-Franck et al. (2016).

Experiments:
Assay in all cases: radiometric filter-binding kinase assay, Kinase HotSpot
[1] = biological target: PAK1 (human) (UniProt Q13153); conditions: compound 0.5 µM; ATP 10 µM
[2] = biological target: PRKCI (human) (UniProt P41743); conditions: compound 0.5 µM; ATP 10 µM
[3] = biological target: PAK4 (human) (UniProt O96013); conditions: compound 0.5 µM; ATP 10 µM
[4] = biological target: EPHB2 (human) (UniProt P29323); conditions: compound 0.5 µM; ATP 10 µM
[5] = biological target: TNK2 (human) (UniProt Q07912); conditions: compound 0.5 µM; ATP 10 µM
[6] = biological target: STK39 (human) (UniProt Q9UEW8); conditions: compound 0.5 µM
[7] = biological target: AURKB (human) (UniProt Q96GD4); conditions: compound 0.5 µM; ATP 10 µM
[8] = biological target: PRKX (human) (UniProt P51817); conditions: compound 0.5 µM; ATP 10 µM
[9] = biological target: CDC42BPB (human) (UniProt Q9Y5S2); conditions: compound 0.5 µM; ATP 10 µM
[10] = biological target: LIMK1 (human) (UniProt P53667); conditions: compound 0.5 µM; ATP 10 µM
[11] = biological target: FYN (human) (UniProt P06241); conditions: compound 0.5 µM; ATP 10 µM
[12] = biological target: ACVRL1 (human) (UniProt P37023); conditions: compound 0.5 µM; ATP 10 µM
[13] = biological target: LRRK2 (human) (UniProt Q5S007); conditions: compound 0.5 µM; ATP 10 µM
[14] = biological target: MARK2 (human) (UniProt Q7KZI7); conditions: compound 0.5 µM; ATP 10 µM
[15] = biological target: CLK4 (human) (UniProt Q9HAZ1); conditions: compound 0.5 µM; ATP 10 µM
[16] = biological target: WNK2 (human) (UniProt Q9Y3S1); conditions: compound 0.5 µM; ATP 10 µM
[17] = biological target: CSNK1G1 (human) (UniProt Q9HCP0); conditions: compound 0.5 µM; ATP 10 µM
[18] = biological target: MATK (human) (UniProt P42679); conditions: compound 0.5 µM; ATP 10 µM
[19] = biological target: RPS6KB2 (human) (UniProt Q9UBS0); conditions: compound 0.5 µM; ATP 10 µM
[20] = biological target: TBK1 (human) (UniProt Q9UHD2); conditions: compound 0.5 µM; ATP 10 µM
[21] = biological target: IKBKB (human) (UniProt O14920); conditions: compound 0.5 µM; ATP 10 µM
[22] = biological target: NEK4 (human) (UniProt P51957); conditions: compound 0.5 µM; ATP 10 µM
[23] = biological target: GSK3B (human) (UniProt P49841); conditions: compound 0.5 µM; ATP 10 µM
[24] = biological target: PLK1 (human) (UniProt P53350); conditions: compound 0.5 µM; ATP 10 µM
[25] = biological target: EPHA7 (human) (UniProt Q15375); conditions: compound 0.5 µM; ATP 10 µM
[26] = biological target: CDK2 CCNA2 (human) (UniProt P24941+P20248); conditions: compound 0.5 µM
[27] = biological target: GSG2 (human) (UniProt Q8TF76); conditions: compound 0.5 µM; ATP 10 µM
[28] = biological target: MET (human) (UniProt P08581); conditions: compound 0.5 µM; ATP 10 µM
[29] = biological target: PAK6 (human) (UniProt Q9NQU5); conditions: compound 0.5 µM; ATP 10 µM
[30] = biological target: NTRK1 (human) (UniProt P04629); conditions: compound 0.5 µM; ATP 10 µM
[31] = biological target: CDK9 CCNT1 (human) (UniProt P50750+O60563); conditions: compound 0.5 µM
[32] = biological target: MERTK (human) (UniProt Q12866); conditions: compound 0.5 µM; ATP 10 µM
[33] = biological target: EPHA2 (human) (UniProt P29317); conditions: compound 0.5 µM; ATP 10 µM
[34] = biological target: PNCK (human) (UniProt Q6P2M8); conditions: compound 0.5 µM; ATP 10 µM
[35] = biological target: MST4 (human) (UniProt Q9P289); conditions: compound 0.5 µM; ATP 10 µM
[36] = biological target: MUSK (human) (UniProt O15146); conditions: compound 0.5 µM; ATP 10 µM
[37] = biological target: TAOK3 (human) (UniProt Q9H2K8); conditions: compound 0.5 µM; ATP 10 µM
[38] = biological target: MAP4K5 (human) (UniProt Q9Y4K4); conditions: compound 0.5 µM; ATP 10 µM
[39] = biological target: CSNK2A1 (human) (UniProt P68400); conditions: compound 0.5 µM; ATP 10 µM
[40] = biological target: BRSK1 (human) (UniProt Q8TDC3); conditions: compound 0.5 µM; ATP 10 µM
[41] = biological target: AKT1 (human) (UniProt P31749); conditions: compound 0.5 µM; ATP 10 µM
[42] = biological target: CSNK1A1 (human) (UniProt P48729); conditions: compound 0.5 µM; ATP 10 µM

Sequence of PAK1 (human) (Q13153 whole entry, looked up): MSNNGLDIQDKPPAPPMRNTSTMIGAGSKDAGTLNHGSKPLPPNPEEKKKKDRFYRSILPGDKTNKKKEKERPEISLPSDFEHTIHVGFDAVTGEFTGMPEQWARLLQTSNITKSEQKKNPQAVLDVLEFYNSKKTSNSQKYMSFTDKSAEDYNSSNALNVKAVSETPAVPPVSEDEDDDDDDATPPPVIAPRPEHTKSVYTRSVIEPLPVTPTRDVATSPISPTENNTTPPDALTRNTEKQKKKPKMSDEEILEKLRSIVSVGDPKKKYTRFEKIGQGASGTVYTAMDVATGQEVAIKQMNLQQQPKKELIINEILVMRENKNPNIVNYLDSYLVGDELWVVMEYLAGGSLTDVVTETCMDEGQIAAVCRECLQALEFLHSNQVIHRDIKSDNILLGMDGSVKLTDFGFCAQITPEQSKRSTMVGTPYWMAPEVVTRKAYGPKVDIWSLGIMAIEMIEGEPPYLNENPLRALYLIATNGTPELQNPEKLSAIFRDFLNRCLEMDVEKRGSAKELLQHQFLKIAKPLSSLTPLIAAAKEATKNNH
Sequence of PAK6 (human) (Q9NQU5 whole entry, looked up): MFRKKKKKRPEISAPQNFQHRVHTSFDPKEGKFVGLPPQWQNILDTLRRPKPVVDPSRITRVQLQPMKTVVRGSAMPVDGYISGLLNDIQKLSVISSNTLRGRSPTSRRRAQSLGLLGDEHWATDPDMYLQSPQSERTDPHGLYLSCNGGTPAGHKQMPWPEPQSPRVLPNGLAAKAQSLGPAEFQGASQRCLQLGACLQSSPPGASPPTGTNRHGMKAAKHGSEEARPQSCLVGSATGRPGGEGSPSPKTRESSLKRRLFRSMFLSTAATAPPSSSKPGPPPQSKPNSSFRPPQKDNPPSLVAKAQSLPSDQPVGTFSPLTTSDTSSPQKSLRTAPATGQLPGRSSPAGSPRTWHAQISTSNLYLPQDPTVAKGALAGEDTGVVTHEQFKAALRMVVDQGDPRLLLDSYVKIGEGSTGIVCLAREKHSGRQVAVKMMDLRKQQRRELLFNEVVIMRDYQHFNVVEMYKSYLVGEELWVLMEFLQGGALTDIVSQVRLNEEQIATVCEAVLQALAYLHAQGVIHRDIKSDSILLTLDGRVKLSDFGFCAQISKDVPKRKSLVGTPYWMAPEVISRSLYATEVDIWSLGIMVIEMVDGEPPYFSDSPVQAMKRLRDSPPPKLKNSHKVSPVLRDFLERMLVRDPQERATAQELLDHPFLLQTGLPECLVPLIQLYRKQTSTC
Sequence of MAP4K5 (human) (Q9Y4K4 whole entry, looked up): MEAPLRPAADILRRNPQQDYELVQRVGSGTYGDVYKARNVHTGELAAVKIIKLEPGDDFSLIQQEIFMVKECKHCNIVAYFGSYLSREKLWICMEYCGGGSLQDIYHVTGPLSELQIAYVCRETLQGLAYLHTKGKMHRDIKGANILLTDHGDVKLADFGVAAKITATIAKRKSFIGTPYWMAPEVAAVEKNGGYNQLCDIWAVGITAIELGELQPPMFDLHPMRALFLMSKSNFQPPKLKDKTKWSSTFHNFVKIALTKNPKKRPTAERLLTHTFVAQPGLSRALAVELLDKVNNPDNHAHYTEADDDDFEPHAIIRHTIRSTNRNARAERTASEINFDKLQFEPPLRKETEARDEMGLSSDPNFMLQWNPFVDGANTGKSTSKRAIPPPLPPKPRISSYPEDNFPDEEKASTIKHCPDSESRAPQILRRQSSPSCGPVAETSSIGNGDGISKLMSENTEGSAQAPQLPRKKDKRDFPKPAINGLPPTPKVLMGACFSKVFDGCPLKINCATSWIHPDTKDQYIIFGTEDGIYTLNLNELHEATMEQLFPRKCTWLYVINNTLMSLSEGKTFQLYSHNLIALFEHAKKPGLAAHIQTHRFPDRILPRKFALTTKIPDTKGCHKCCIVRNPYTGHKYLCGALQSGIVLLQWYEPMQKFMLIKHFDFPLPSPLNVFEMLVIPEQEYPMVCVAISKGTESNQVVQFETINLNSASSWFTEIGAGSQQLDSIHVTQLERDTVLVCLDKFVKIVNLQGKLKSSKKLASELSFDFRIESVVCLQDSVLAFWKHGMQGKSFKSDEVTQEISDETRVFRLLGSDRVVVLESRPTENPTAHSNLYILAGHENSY
Sequence of CDC42BPB (human) (Q9Y5S2 whole entry, looked up): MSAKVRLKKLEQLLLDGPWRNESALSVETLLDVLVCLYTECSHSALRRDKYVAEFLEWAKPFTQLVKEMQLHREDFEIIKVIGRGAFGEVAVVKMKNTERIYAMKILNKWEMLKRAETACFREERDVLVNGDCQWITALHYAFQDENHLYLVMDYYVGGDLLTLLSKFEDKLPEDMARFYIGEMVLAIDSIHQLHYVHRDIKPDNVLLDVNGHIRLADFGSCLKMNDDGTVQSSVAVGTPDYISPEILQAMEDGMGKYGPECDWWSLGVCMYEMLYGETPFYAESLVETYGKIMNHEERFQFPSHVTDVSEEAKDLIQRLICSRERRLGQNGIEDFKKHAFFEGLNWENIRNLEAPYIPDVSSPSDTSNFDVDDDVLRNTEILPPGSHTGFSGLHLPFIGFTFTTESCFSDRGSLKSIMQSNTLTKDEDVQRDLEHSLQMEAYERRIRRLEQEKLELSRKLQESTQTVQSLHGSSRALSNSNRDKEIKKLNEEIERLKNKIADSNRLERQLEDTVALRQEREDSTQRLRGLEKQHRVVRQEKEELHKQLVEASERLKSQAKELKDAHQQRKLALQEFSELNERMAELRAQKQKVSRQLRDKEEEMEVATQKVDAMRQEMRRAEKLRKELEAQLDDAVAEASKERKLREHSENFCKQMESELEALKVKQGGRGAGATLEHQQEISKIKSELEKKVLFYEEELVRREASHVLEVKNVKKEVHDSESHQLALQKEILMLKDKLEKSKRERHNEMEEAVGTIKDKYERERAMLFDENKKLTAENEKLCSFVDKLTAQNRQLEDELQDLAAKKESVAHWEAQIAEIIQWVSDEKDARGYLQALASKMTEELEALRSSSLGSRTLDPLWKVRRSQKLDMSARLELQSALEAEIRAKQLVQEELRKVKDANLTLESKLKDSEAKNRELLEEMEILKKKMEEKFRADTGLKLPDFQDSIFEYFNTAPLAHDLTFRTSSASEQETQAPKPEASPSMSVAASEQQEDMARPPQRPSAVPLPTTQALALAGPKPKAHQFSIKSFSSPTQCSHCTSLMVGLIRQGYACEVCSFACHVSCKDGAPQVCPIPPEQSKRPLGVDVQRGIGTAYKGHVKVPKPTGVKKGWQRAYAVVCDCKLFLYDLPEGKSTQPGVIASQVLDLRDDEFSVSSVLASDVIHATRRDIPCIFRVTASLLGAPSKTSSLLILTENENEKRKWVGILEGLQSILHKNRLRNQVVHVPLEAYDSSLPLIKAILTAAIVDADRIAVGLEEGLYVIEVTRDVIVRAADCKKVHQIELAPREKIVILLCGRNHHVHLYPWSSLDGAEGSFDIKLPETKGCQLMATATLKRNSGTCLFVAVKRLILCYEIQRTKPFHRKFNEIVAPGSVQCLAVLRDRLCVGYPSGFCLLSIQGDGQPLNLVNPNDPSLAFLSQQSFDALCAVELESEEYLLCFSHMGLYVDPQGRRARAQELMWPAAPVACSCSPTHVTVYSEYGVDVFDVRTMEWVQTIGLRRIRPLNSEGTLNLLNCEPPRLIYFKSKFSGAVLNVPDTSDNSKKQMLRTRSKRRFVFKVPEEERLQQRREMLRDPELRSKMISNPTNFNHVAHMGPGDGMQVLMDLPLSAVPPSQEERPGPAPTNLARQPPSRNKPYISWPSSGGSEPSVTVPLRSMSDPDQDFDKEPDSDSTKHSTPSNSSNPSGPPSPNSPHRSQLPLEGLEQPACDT
Sequence of CLK4 (human) (Q9HAZ1 whole entry, looked up): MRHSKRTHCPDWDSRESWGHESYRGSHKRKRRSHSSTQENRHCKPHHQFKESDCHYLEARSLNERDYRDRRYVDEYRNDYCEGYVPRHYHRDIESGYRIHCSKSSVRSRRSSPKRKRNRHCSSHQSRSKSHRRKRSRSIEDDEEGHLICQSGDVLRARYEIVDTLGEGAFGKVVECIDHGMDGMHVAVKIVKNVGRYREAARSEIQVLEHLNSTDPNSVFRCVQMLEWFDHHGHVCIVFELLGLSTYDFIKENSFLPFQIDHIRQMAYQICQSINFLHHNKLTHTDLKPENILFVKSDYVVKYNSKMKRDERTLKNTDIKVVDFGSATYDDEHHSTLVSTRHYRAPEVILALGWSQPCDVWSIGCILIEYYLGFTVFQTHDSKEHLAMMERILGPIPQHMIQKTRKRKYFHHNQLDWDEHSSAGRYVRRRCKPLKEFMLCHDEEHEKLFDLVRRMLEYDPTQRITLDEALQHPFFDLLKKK
Sequence of PLK1 (human) (P53350 whole entry, looked up): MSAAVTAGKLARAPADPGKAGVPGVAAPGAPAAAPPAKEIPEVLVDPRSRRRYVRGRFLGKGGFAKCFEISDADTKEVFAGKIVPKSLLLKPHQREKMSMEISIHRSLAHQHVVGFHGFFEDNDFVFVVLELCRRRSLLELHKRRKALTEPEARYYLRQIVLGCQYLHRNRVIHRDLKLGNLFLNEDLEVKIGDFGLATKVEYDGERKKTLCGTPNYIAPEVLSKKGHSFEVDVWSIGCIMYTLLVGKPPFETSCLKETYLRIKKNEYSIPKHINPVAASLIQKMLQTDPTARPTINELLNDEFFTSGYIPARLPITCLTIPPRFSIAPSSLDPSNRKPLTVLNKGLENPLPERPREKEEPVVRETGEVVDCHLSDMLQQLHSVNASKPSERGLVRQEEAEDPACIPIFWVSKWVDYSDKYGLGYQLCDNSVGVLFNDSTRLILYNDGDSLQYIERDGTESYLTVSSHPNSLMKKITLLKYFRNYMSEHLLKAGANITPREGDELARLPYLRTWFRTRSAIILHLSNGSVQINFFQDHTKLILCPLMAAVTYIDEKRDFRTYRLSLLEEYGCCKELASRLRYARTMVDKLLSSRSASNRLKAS

Structure (SMILES): Cn1cc(/C=C2\C(=O)Nc3ccc(S(N)(=O)=O)cc32)c2ccccc21
- residual activity [1]: 90.8%
- residual activity [2]: 99.6%
- residual activity [3]: 86.2%
- residual activity [4]: 84.8%
- residual activity [5]: 72.3%
- residual activity ([6]; ATP 10 µM): 79.3%
- residual activity [7]: 10.5%
- residual activity [8]: 81%
- residual activity [9]: 114%
- residual activity [10]: 74.1%
- residual activity [11]: 45.7%
- residual activity [12]: 99.1%
- residual activity [13]: 9.76%
- residual activity [14]: 45.5%
- residual activity [15]: 42.6%
- residual activity [16]: 97.7%
- residual activity [17]: 88.3%
- residual activity [18]: 103%
- residual activity [19]: 94.6%
- residual activity [20]: 21.6%
- residual activity [21]: 101%
- residual activity [22]: 81%
- residual activity [23]: 98.4%
- residual activity [24]: 92.1%
- residual activity [25]: 41.3%
- residual activity ([26]; ATP 10 µM): 66.2%
- residual activity [27]: 93.1%
- residual activity [28]: 84.2%
- residual activity [29]: 90.1%
- residual activity [30]: 6.15%
- residual activity ([31]; ATP 10 µM): 65%
- residual activity [32]: 45.9%
- residual activity [33]: 93%
- residual activity [34]: 58.1%
- residual activity [35]: 101%
- residual activity [36]: 105%
- residual activity [37]: 60.2%
- residual activity [38]: 13.4%
- residual activity [39]: 84.7%
- residual activity [40]: 47.8%
- residual activity [41]: 105%
- residual activity [42]: 105%

Structure (SMILES): O=c1[nH]c2ccccc2n1C1CCN(Cc2ccc(-c3nc4cc5[nH]cnc5cc4nc3-c3ccccc3)cc2)CC1
- residual activity [1]: 90.6%
- residual activity [2]: 97%
- residual activity [3]: 102%
- residual activity [4]: 108%
- residual activity [5]: 92.3%
- residual activity [6]: 98.2%
- residual activity [7]: 98.7%
- residual activity [8]: 101%
- residual activity [9]: 101%
- residual activity [10]: 110%
- residual activity [11]: 101%
- residual activity [12]: 105%
- residual activity [13]: 103%
- residual activity [14]: 92.2%
- residual activity [15]: 92.8%
- residual activity [16]: 115%
- residual activity [17]: 99.3%
- residual activity [18]: 102%
- residual activity [19]: 102%
- residual activity [20]: 92.7%
- residual activity [21]: 101%
- residual activity [22]: 106%
- residual activity [23]: 113%
- residual activity [24]: 109%
- residual activity [25]: 109%
- residual activity [26]: 98%
- residual activity [27]: 106%
- residual activity [28]: 102%
- residual activity [29]: 109%
- residual activity [30]: 99.4%
- residual activity [31]: 93.2%
- residual activity [32]: 96.2%
- residual activity [33]: 103%
- residual activity [34]: 95.5%
- residual activity [35]: 102%
- residual activity [36]: 96.8%
- residual activity [37]: 111%
- residual activity [38]: 91.9%
- residual activity [39]: 94.3%
- residual activity [40]: 98.3%
- residual activity [41]: 114%
- residual activity [42]: 96%
